Measurements reported in PubChem BioAssay (NCI).
Where “and” joins values, the source holds several entries; their conditions need not be identical. Identical values can stand only once.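 1) Cells in 96-well plates. 2) Compound, 48 h, 5 concentrations. 3) Linear interpolation between surrounding doses. 4) Unreached endpoint = highest concentration. At the GI50, growth is halved. TGI denotes the concentration required for complete inhibition of growth.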

test system: CCRF-CEM leukemia; assay: NCI tumour cell line growth inhibition, 48 h

| SMILES | GI50 | TGI |
| --- | --- | --- |
| O=S(=O)([O-])c1ccc2c(c1)-c1nc-2nc2[n-]c(nc3nc(nc4[n-]c(n1)c1ccc(S(=O)(=O)[O-])cc41)-c1cc(S(=O)(=O)[O-])ccc1-3)c1ccc(S(=O)(=O)[O-])cc21.[Cu+2].[Na+] | 580 nM | > 39.5 µM |
| CC(C)c1ccc(Nc2ccc3c(OCCCN4CCN(C)CC4)cccc3n2)cc1 | 3740 nM | 21.3 µM |
| CCCCOC(=O)C1C(c2ccc(Cl)cc2)NC(c2ccc(Cl)cc2)C(C(=O)OCCCC)S1(=O)=O (centres undefined) | – | > 100 µM |
| Cc1cc(Br)cc(C)c1NC(=O)C(=O)C(C(=O)c1ccc2ccccc2c1)C1OC(=O)c2ccccc21 (centres undefined) | – | 45.1 µM |
| CC(=O)Nc1ccc(C(=O)NN2C(=O)C(Cl)C2c2ccccc2)cc1 (centres undefined) | – | > 100 µM |
| COc1ccc2c(c1)C(C)Cc1c(Cl)ncnc1N2C (centres undefined) | 2140 nM | > 55.8 µM |
| C#Cc1cccc(Nc2ncnc3cc(OC)c(OCCCCCCC(=O)NO)cc23)c1 | 40.4 nM | 5.85 µM |
| Cc1ccc(SC(C)/C=C/NNC2=NC(c3ccccc3)C(c3ccccc3)=NN2)cc1 (centres undefined) | – | > 100 µM |
| Cc1nnc(S(=O)(=O)c2ccc(N=Nc3c(N)nc(N)nc3N)cc2)s1 | – | > 100 µM |
| O=c1n(CC2CO2)c(=O)n(CC2CO2)c(=O)n1CC1CO1 (centres undefined) | 6050 nM and 2920 nM | 223 µM and > 100 µM |
| Cc1ccc(C(SCC(N)C(=O)O)(c2ccccc2)c2ccc(C)cc2)cc1 (centres undefined) | 341 nM | > 75.7 µM |
| COc1cc(Nc2cn[nH]c2-c2ccc(Cl)cc2)cc(OC)c1OC | 3420 nM | > 81.9 µM |
| CNCCNc1c2c(c(NCCNC)c3c(CN(C)C)c[nH]c13)C(=O)c1ccccc1C2=O | 716 nM | 34.2 µM |
| O=C1NC(=Nc2ccccc2)S/C1=C\c1ccc2ncccc2c1 | > 25000 nM | > 25 µM |
| C/C1=C\CC[C@@]2(C)O[C@@H]2[C@H]2OC(=O)[C@@H](CN(C)C)[C@@H]2CC1 | 2110 nM | 5.61 µM |
| Oc1ccc(Cl)cc1Cc1cc(Cl)cc(Cl)c1O | 6530 nM | 88 µM |
| C=C(C=O)C1CCC2(C(=O)O)CCC3(C)C(CCC4C5(C)CCC(O)C(C)(C)C5CCC43C)C12 (centres undefined) | 2680 nM | > 46.6 µM |
| COc1ccc(N2C(=O)C(c3ccccc3)(c3ccccc3)C23C(=O)N(C)c2ccccc23)cc1 (centres undefined) | > 100000 nM | > 100 µM |
| COc1ccc(C2S/C(=C\c3ccccc3O)C(=O)N2NC(=O)Cc2ccccc2)cc1 (centres undefined) | – | > 100 µM |
| Cc1ccc(S(=O)(=O)NCC2CCCCC2=O)cc1 (centres undefined) | – | > 100 µM |
| CNC(=S)NC1CCCCC1NC(=S)NC (centres undefined) | – | > 100 µM |
| CC1OC(n2cc(F)c(=O)[nH]c2=O)C=CC1O (centres undefined) | – | > 77.9 µM |
| C=C(C=O)[C@@H]1C2OC(=O)C(=C)[C@@H]2CC(O)[C@@]1(C)CC (some centres undefined) | – | 6.44 µM |
| C=C(CCCCC)CN1CCCC1[C@@](C)(O)CC(=O)OCC (some centres undefined) | – | > 100 µM |
| NC(=NCCCOc1ccc(Cl)cc1)Nc1ccc(C(F)(F)F)cc1 | 2590 nM | 9.75 µM |
| O=C1c2ccccc2C(=O)C1(Cl)C1(S(=O)(=O)O)c2ccccc2-c2ccccc21 | – | > 100 µM |

test system: NCI-H226 lung; assay: NCI tumour cell line growth inhibition, 48 h

| SMILES | GI50 | TGI |
| --- | --- | --- |
| O=S(=O)([O-])c1ccc2c(c1)-c1nc-2nc2[n-]c(nc3nc(nc4[n-]c(n1)c1ccc(S(=O)(=O)[O-])cc41)-c1cc(S(=O)(=O)[O-])ccc1-3)c1ccc(S(=O)(=O)[O-])cc21.[Cu+2].[Na+] | > 100 µM | > 100 µM |
| CC(C)c1ccc(Nc2ccc3c(OCCCN4CCN(C)CC4)cccc3n2)cc1 | 18.8 µM | 38.7 µM |
| CCCCOC(=O)C1C(c2ccc(Cl)cc2)NC(c2ccc(Cl)cc2)C(C(=O)OCCCC)S1(=O)=O (centres undefined) | – | > 100 µM |
| Cc1cc(Br)cc(C)c1NC(=O)C(=O)C(C(=O)c1ccc2ccccc2c1)C1OC(=O)c2ccccc21 (centres undefined) | – | 11.2 µM |
| CC(=O)Nc1ccc(C(=O)NN2C(=O)C(Cl)C2c2ccccc2)cc1 (centres undefined) | – | > 100 µM |
| COc1ccc2c(c1)C(C)Cc1c(Cl)ncnc1N2C (centres undefined) | 0.213 µM | 0.481 µM |
| C#Cc1cccc(Nc2ncnc3cc(OC)c(OCCCCCCC(=O)NO)cc23)c1 | 0.853 µM | 4.81 µM |
| Cc1ccc(SC(C)/C=C/NNC2=NC(c3ccccc3)C(c3ccccc3)=NN2)cc1 (centres undefined) | – | 98.1 µM |
| Cc1nnc(S(=O)(=O)c2ccc(N=Nc3c(N)nc(N)nc3N)cc2)s1 | – | > 100 µM |
| O=c1n(CC2CO2)c(=O)n(CC2CO2)c(=O)n1CC1CO1 (centres undefined) | 22.6 µM and 10.9 µM | 78.3 µM and 103 µM and 45.9 µM |
| Cc1ccc(C(SCC(N)C(=O)O)(c2ccccc2)c2ccc(C)cc2)cc1 (centres undefined) | 3.02 µM | 25.8 µM |
| COc1cc(Nc2cn[nH]c2-c2ccc(Cl)cc2)cc(OC)c1OC | 11.7 µM | 30.4 µM |
| CNCCNc1c2c(c(NCCNC)c3c(CN(C)C)c[nH]c13)C(=O)c1ccccc1C2=O | 6.69 µM | 24.2 µM |
| O=C1NC(=Nc2ccccc2)S/C1=C\c1ccc2ncccc2c1 | > 25 µM | > 25 µM |
| C/C1=C\CC[C@@]2(C)O[C@@H]2[C@H]2OC(=O)[C@@H](CN(C)C)[C@@H]2CC1 | 20.4 µM | 40.6 µM |
| Oc1ccc(Cl)cc1Cc1cc(Cl)cc(Cl)c1O | 12.7 µM | 37.2 µM |
| C=C(C=O)C1CCC2(C(=O)O)CCC3(C)C(CCC4C5(C)CCC(O)C(C)(C)C5CCC43C)C12 (centres undefined) | 14.3 µM | > 100 µM |
| COc1ccc(N2C(=O)C(c3ccccc3)(c3ccccc3)C23C(=O)N(C)c2ccccc23)cc1 (centres undefined) | > 100 µM | > 100 µM |
| COc1ccc(C2S/C(=C\c3ccccc3O)C(=O)N2NC(=O)Cc2ccccc2)cc1 (centres undefined) | – | > 100 µM |
| Cc1ccc(S(=O)(=O)NCC2CCCCC2=O)cc1 (centres undefined) | – | > 100 µM |
| CNC(=S)NC1CCCCC1NC(=S)NC (centres undefined) | – | > 100 µM |
| CC1OC(n2cc(F)c(=O)[nH]c2=O)C=CC1O (centres undefined) | – | > 100 µM |
| C=C(C=O)[C@@H]1C2OC(=O)C(=C)[C@@H]2CC(O)[C@@]1(C)CC (some centres undefined) | – | 59.8 µM |
| C=C(CCCCC)CN1CCCC1[C@@](C)(O)CC(=O)OCC (some centres undefined) | – | > 100 µM |
| NC(=NCCCOc1ccc(Cl)cc1)Nc1ccc(C(F)(F)F)cc1 | 3.87 µM | 19.2 µM |
| O=C1c2ccccc2C(=O)C1(Cl)C1(S(=O)(=O)O)c2ccccc2-c2ccccc21 | – | > 100 µM |

test system: OVCAR-4 ovarian; assay: NCI tumour cell line growth inhibition, 48 h

| SMILES | GI50 | TGI |
| --- | --- | --- |
| O=S(=O)([O-])c1ccc2c(c1)-c1nc-2nc2[n-]c(nc3nc(nc4[n-]c(n1)c1ccc(S(=O)(=O)[O-])cc41)-c1cc(S(=O)(=O)[O-])ccc1-3)c1ccc(S(=O)(=O)[O-])cc21.[Cu+2].[Na+] | 5.31 µM | > 80.4 µM |
| CC(C)c1ccc(Nc2ccc3c(OCCCN4CCN(C)CC4)cccc3n2)cc1 | 13.9 µM | 28.5 µM |
| CCCCOC(=O)C1C(c2ccc(Cl)cc2)NC(c2ccc(Cl)cc2)C(C(=O)OCCCC)S1(=O)=O (centres undefined) | – | > 100 µM |
| Cc1cc(Br)cc(C)c1NC(=O)C(=O)C(C(=O)c1ccc2ccccc2c1)C1OC(=O)c2ccccc21 (centres undefined) | – | > 36.4 µM |
| CC(=O)Nc1ccc(C(=O)NN2C(=O)C(Cl)C2c2ccccc2)cc1 (centres undefined) | – | > 100 µM |
| COc1ccc2c(c1)C(C)Cc1c(Cl)ncnc1N2C (centres undefined) | 0.395 µM | > 100 µM |
| C#Cc1cccc(Nc2ncnc3cc(OC)c(OCCCCCCC(=O)NO)cc23)c1 | 0.374 µM | 5.34 µM |
| Cc1ccc(SC(C)/C=C/NNC2=NC(c3ccccc3)C(c3ccccc3)=NN2)cc1 (centres undefined) | – | > 100 µM |
| Cc1nnc(S(=O)(=O)c2ccc(N=Nc3c(N)nc(N)nc3N)cc2)s1 | – | > 100 µM |
| O=c1n(CC2CO2)c(=O)n(CC2CO2)c(=O)n1CC1CO1 (centres undefined) | 25.9 µM and 23 µM | 112 µM and > 100 µM |
| Cc1ccc(C(SCC(N)C(=O)O)(c2ccccc2)c2ccc(C)cc2)cc1 (centres undefined) | 13.4 µM | 72.7 µM |
| COc1cc(Nc2cn[nH]c2-c2ccc(Cl)cc2)cc(OC)c1OC | 7.93 µM | > 100 µM |
